Consider 11 compounds from PubChem BioAssay (NCI).

Holding throughout (assay): growth of human tumour cells (NCI), 48 h
Experiment [1] has as its system SN12C renal.
The test system of experiment [2] is OVCAR-5 ovarian.
In experiment [3] the test system is HOP-62 NSCLC.
The subject of experiment [4] is SF-295 CNS.
Experiment [5] deals with NCI-H23 lung.
For experiment [6], the system named is SK-OV-3 ovarian.
In experiment [7] the test system is SNB-19 CNS.
Experiment [8] relates to SK-MEL-28 melanoma.
Experiment [9] concerns CAKI-1 renal.

SMILES strings stand for the structures.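 Exposure lasted 48 hours, with cells grown in 96-well plates and compounds tested at five concentrations. Abbreviation: GI50, concentration required for 50% inhibition of growth. The concentration for full growth arrest is given as TGI.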

Turning to `CC(C)[C@H](COC(C)(C)C)N=CN1CSc2ccccc21`, the TGI was 84.1 µM in experiment [1]; over 100 µM in experiment [2]; over 100 µM in experiment [3]; 67.4 µM in experiment [4]; over 100 µM in [5]; 78.3 µM in [6]. In addition, the TGI in [7] and in experiment [8] was over 100 µM each time.
For `CC(=O)c1ccc(NCn2nc(-c3ccccc3O)oc2=S)cc1`, the GI50 in experiment [1] was 27 µM; in [2], over 100 µM; in experiment [3], over 100 µM; in [4], over 100 µM; in [5] it was 92.6 µM; in experiment [9], over 100 µM. The GI50 in [7] and in [8] was over 100 µM in each case. Further, the TGI in experiment [1] was 64.9 µM; in experiment [2], over 100 µM; in experiment [3] it was over 100 µM; in experiment [4] it was over 100 µM; in experiment [5] it was over 100 µM; in experiment [9] it was over 100 µM. The TGI in experiment [7] and in experiment [8] was over 100 µM each time.
With `NC(CCc1nc(-c2ccccc2)cs1)C(=O)O` (centres undefined), the TGI in [1], in experiment [4], in experiment [5], in [9], in [6] and in experiment [7] was over 100 µM in each case. This compound had a TGI in experiment [8] of over 100 µM.
Turning to `O=c1cc(-c2ccccc2)oc2cc(OCc3cn(Cc4ccc(F)cc4)nn3)cc(O)c12`, the GI50 in experiment [1] was over 100 µM; in [2] it was over 100 µM; in experiment [3], 3.76 µM; in experiment [4] it was 10.2 µM; in experiment [5], 7.7 µM; in [9], 5.76 µM. Further, the results for the GI50 in experiment [6] and in experiment [7] were 6.57 µM and 4.51 µM, respectively. The TGI is over 100 µM in experiment [1]; over 100 µM in experiment [2]; 21.7 µM in experiment [3]; 46.8 µM in [4]; over 100 µM in experiment [5]; over 100 µM in experiment [9]. For the same compound, the figures for the TGI in experiment [6] and in [7] were over 100 µM and 83.2 µM, respectively.
On to `COC(=O)/C1=C/C2CC(/C=C(/c3ccccc3)C(=O)O1)C2`, for which the TGI in experiment [1] was 64.3 µM; in [3], 95 µM; in [4], over 100 µM; in [5], 38.4 µM; in experiment [6], 72.9 µM; in [7], over 100 µM. Besides, the TGI in [8] amounted to 66.4 µM.
As to `N#CC(C(=N/NC(N)=S)/C(=N\NC(N)=S)C(C#N)c1ccccc1)c1ccccc1` (centres undefined), the TGI in experiment [1], in [2], in experiment [3], in [4], in [5] and in experiment [6] was over 10 µM each time. Further, the TGI in experiment [7] and in [8] was over 10 µM in each case.
With `CCC(=O)[O-].CCC(=O)[O-].N.N.N.N.[Co+3].[O-][Cl+3]([O-])([O-])[O-]`, the GI50 in experiment [1], in experiment [2], in [3], in experiment [4], in experiment [5] and in experiment [6] was over 100 µM throughout. Moreover, the GI50 in [7] and in [8] was over 100 µM in each case. Moreover, the TGI in experiment [1], in [2], in experiment [3], in experiment [4], in [5] and in experiment [6] was over 100 µM in each case. Further, the TGI in experiment [7] and in experiment [8] was over 100 µM throughout.
Turning to `Cc1occc1C(=S)Nc1ccc(Cl)c(C(=O)OCC2CC2)c1`, the TGI in experiment [1], in experiment [2], in experiment [4], in experiment [5], in [9] and in [6] was over 100 µM throughout. Besides, the TGI in [7] and in experiment [8] was over 100 µM throughout.
`[O-]c1c(-c2ccccc2)[se]c(-c2ccccc2)[n+]1-c1ccccc1`: the TGI in experiment [1] amounted to 17.9 µM; in experiment [4] it was 12.1 µM; in experiment [5], 29.7 µM; in [9], 34.1 µM; in experiment [6], 39.2 µM; in experiment [7] it was 20.2 µM. For the same compound, the TGI in [8] worked out at 22.7 µM.
Consider `Cc1ccc(S(=O)(=O)NC(C)C(=O)O)cc1` (centres undefined), for which the TGI in experiment [1], in experiment [2], in [4], in [5], in experiment [9] and in experiment [6] was over 100 µM throughout. Also, the TGI in experiment [7] and in [8] was over 100 µM each time.
Consider `CC1=C(CC/C(C)=C/CCC2(C)CCC([C@H](C)C(=O)O)OO2)C(C)(C)CCC1` (some centres undefined) (tested in a mixture with another compound), for which the TGI in experiment [1], in experiment [2], in [3], in [4], in experiment [5] and in experiment [9] was over 100 µM throughout. The TGI in experiment [7] and in experiment [8] was over 100 µM each time.
